This passage reports IC50 results from patent US20250042857A1, “SOS1 Inhibitor With Pyrido-Fused Six-Membered Ring Structure” (HAIHE BIOPHARMA CO., LTD., priority 2021, published 2025).

One test has as its target KRAS-G12C/SOS1 (Homo sapiens (Human), UniProt Q07889). The test can be described thus: Detection of inhibitory effects of compounds on KRAS-G12C/SOS1 (KRASG12C/SOS binding kit, HTRF). The conditions noted are these: Em665/620, read-out: IC50, inhibitory activity on interaction of KRAS-G12C/SOS1. The text has this: Experimental objective: The inhibitory effects of the tested compounds on KRAS-G12C/SOS1 were detected. IC50 was used to characterize the inhibitory ability of the compounds on the KRAS-G12C/SOS1. The lower IC50 value indicated the stronger inhibitory ability. BI-3406 was used as a positive control compound.
Experimental reagents: KRASG12C/SOS binding kit (Cisbio, cat. 63ADK000CB16PEG); DMSO (Sigma, cat. D8418-1L); and 384-well white plate (PerkinElmer, cat. 6007290)
• 1. Preparation of compounds: the test compounds were dissolved in 100% DMSO to obtain 10 mM stock solutions and the stock solutions were stored in a refrigerator in the dark. • 2. Kinase reaction process:
Preparation of compounds: the test compounds had the concentration of 5,000 nM and diluted in a 384-well plate into a 100% DMSO solution at the 200-fold final concentration, and the compounds were diluted 3-fold with 10 concentrations. 50 nL of the compounds at the 200-fold final concentration were transferred to the plate of interest, the 384-well plate, using a dispenser Echo 550. 50 nL of 100% DMSO was added to each negative control well and positive control well.
A Tag1-SOS1 solution at the 4-fold final concentration was prepared using a diluent buffer.
2.5 μL of the Tag1-SOS1 solution at the 4-fold final concentration was added to the 384-well plate.
A Tag2-KRAS-G12C solution at the 4-fold final concentration was prepared using the diluent buffer.
2.5 μL of the Tag2-KRAS-G12C solution at the 4-fold final concentration was respectively added into compound wells and the positive control wells; and 2.5 μL of the diluent buffer was added to the negative control wells.
The 384-well plate was centrifuged at 1,000 rpm for 30 seconds, shaken and mixed uniformly, and incubated at room temperature for 15 minutes.
An Anti-Tag1-TB3+ solution at the 1-fold final concentration and an Anti-Tag2-XL665 solution at the 1-fold final concentration were prepared using a detection buffer, the two solutions were mixed uniformly to obtain a Mix solution, and 5 μL of the Mix solution was added into each well.
The 384-well plate was centrifuged at 1,000 rpm for 30 seconds, shaken and mixed uniformly, and incubated at 4° C. for 120 minutes.
Em665/620 was read using an Envision microplate reader.
Inhibition %=(Max signal−Compound signal)/(Max signal−Min signal)×100 Calculation formula • wherein the Min signal was the mean value of the negative control wells, and the Max signal was the mean value of the positive control wells.
A dose-response curve was fitted using the log value of the concentration as an X axis and the percentage of the inhibitory rate as a Y axis by using the log(inhibitor) vs. response-variable slope of an analytical software GraphPadPrism5, thereby obtaining the IC50 value of each compound on an enzyme activity.
In general terms: TR-FRET usually uses a lanthanide donor and a delayed reading to cut background.

The next test concerns p-ERK of PC-9 cells. Put plainly: p-ERK HTRF assay in PC-9 cells. The class given is cell-based. As to conditions: PC-9 lung cancer cells, 1 hour treatment, read-out: IC50, inhibitory activity on p-ERK of PC-9 cells. The procedure: IC50 Values of Compounds Determined by p-ERK HTRF Assay in PC-9 Cells
Experimental objective: an inhibitory effect of the test compounds on the phosphorylation of PC-9ERK of lung cancer cells at a cellular level was evaluated by detecting the phosphorylation of ERK.
• PRMI 1640 medium (Invitrogen-11875093) • 0.25% pancreatin (Invitrogen-25200056) • Phosphoric acid buffer salt solution (PBS, pH 7.4) (Invitrogen-10010023) • Double-antibody (PS) (Invitrogen-15140122) • Fetal bovine serum (FBS) (Gibco-10091148) • Trypan blue (Gibco-15250061) • 10-cm culture dish (Corning-430167) • 10-mL pipette (Costar-4488) • Pipettor (Sartorius-17009031) • 15-mL centrifuge tube (Corning-430052) • 50-mL centrifuge tube (Corning-430829) • Cryotube (Thermo-377267) • 1.5-mL EP tube (Axygen-MCT-150-C-S) • Cell incubator (Thermo-371) • Microscope (Olympus-CKX41) • Centrifuge (Flying Pigeon-TDL-80-2B) • Cell counter (Countstar-IC-1000) • Envision (Perkin Elmer) • Spark 10M (TECAN) • Phospho-ERK1/2 (Thr202/Tyr204) Experimental kit (Cisbio, Cat. No. 64AERPEG) • PC-9 cells: RPMI1640+10% FBS+1% PS
• 1) PBS, 0.25% pancreatin, and a cell culture medium were placed in a water-bath kettle at 37° C. for preheating; • 2) cells were observed under a microscope, a fusion degree was evaluated, and no bacterial and fungi pollution was confirmed; • 3) a culture solution was removed, the cells were washed with 5 mL of PBS and digested with 2 mL of the 0.25% trypsin, the digestion was terminated with 10 mL of the fresh cell culture medium, a culture dish was rinsed, and the cells were transferred to a 15-mL centrifuge tube; • 4) the collected cells were centrifuged at 1,000 rpm for 5 minutes; • 5) after the centrifugation, the supernatant was discarded, the cells were resuspended in 5 mL of the cell culture medium, 20 μL of the resuspended cells were aspirated, and the number and viability of viable cells were recorded; • 6) the cell culture medium was used and the cell density was adjusted (PC-9:10,000 cells/well, and 45 μL per well); • 7) in a 384-well plate, 45 μL of a cell suspension per well was transferred according to an experimental design figure; and • 8) the cells were incubated overnight at 37° C. and 5% CO2.
• 1) The compounds were diluted from the stock concentration to 10 mM with 100% DMSO (Trametinib was diluted to 1 mM), then 3-fold diluted into 10 points (5 μL of the diluted compounds with the concentration of 10 mM were transferred to 10 μL of the DMSO in an LDV plate), and centrifuged at 1,000 rpm/min for 1 minute; • 2) 5 μL of the diluted compounds of step 1) were transferred to an inter plate 1 containing 45 μL of the cell culture medium (the compounds were diluted from 1,000× to 100×); • 3) 5 μL of the diluted compounds of step 2) were transferred to an inter plate 2 containing 45 μL of the cell culture medium (the compounds were diluted from 100× to 10×); • 4) 5 μL of the compounds were pipetted from the inter plate 2 into a cell culture plate (the compounds were diluted from 10 folds to 1 fold), the final concentrations of the test compounds were 10,000 nM, 3333.33 nM, 1111.11 nM, 370.37 nM, 123.46 nM, 41.15 nM, 13.72 nM, 4.57 nM, 1.52 nM, and […], the solution was centrifuged at 1,000 rpm/min for 1 minute, and the final content of the DMSO was 0.1%; and • 5) the cells were treated in an incubator at 37° C. for 1 hour. […]

The structures appear in SMILES notation. Like-named read-outs stand apart in the source and are kept apart here.

KRAS-G12C/SOS1, sequence (Q07889 whole entry, stated change not applied): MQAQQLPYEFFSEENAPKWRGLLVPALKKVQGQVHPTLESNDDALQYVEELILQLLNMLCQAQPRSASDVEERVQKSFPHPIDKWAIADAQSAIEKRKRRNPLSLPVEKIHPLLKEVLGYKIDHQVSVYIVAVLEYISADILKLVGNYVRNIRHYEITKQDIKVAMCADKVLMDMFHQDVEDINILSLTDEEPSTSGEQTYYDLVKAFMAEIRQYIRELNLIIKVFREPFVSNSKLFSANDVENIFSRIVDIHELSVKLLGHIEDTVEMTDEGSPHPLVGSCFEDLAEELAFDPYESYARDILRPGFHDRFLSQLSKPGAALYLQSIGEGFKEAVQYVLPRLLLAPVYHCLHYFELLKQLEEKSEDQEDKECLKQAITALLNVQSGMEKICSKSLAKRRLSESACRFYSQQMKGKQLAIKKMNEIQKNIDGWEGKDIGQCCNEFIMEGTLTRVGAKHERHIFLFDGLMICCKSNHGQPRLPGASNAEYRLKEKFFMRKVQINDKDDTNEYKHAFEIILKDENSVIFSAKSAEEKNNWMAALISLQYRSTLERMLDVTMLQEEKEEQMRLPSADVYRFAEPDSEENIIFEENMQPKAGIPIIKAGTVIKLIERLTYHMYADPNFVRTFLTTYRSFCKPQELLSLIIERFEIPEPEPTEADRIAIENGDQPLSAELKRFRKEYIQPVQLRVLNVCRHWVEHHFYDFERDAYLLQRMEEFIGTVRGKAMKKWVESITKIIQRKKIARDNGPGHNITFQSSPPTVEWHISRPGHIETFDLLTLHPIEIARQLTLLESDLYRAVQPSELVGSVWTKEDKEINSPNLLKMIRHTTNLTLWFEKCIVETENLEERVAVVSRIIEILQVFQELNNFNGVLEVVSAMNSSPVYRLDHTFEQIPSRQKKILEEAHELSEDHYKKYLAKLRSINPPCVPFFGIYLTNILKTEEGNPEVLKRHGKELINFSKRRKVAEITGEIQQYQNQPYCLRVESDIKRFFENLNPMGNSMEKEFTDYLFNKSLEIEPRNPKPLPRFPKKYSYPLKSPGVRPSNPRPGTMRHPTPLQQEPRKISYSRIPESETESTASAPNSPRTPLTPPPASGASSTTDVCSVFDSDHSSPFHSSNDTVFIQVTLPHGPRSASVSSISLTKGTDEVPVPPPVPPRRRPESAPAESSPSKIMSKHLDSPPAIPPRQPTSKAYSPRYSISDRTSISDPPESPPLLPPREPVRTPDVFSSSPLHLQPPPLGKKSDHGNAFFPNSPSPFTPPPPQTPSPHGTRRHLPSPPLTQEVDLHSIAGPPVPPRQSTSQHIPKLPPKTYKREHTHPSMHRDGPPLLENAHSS

Turning to `C[C@@H](Nc1ccnc2cnc(C3CC3)cc12)c1cccc(C(F)F)c1F` [Compound B-1], the IC50 on KRAS-G12C/SOS1 is no more than 100 nM; with p-ERK of PC-9 cells (Homo sapiens, PC-9, 1 h), 300 to 1000 nM.

For `Cc1nnc(N2CCC(O)(c3cc4c(N[C@H](C)c5cccc(C(F)F)c5F)ccnc4cn3)CC2)o1` [Compound B-153], the IC50 is no more than 100 nM on KRAS-G12C/SOS1 and 300 to 1000 nM in the test on p-ERK of PC-9 cells (Homo sapiens, PC-9, 1 h).

For the compound `C[C@@H](Nc1ccnc2cnc(-c3ccn(C)c(=O)c3)cc12)c1cccc(C(F)F)c1F` [Compound B-108], the IC50 on KRAS-G12C/SOS1 is no more than 100 nM; with p-ERK of PC-9 cells (Homo sapiens, PC-9, 1 h), no more than 300 nM.

For the compound `C[C@@H](Nc1ccnc2cnc(N3CC[C@@H](N)C3)cc12)c1cccc(C(F)F)c1F` [Compound B-31], the IC50 at KRAS-G12C/SOS1 was no more than 100 nM; in the test with p-ERK of PC-9 cells (Homo sapiens, PC-9, 1 h), 300 to 1000 nM.

On to `C[C@@H](Nc1ccnc2cnc(C3(O)CCN(C(=O)[C@H]4C[C@@H](O)CN4)CC3)cc12)c1cccc(C(F)F)c1F` [Compound B-145], for which the IC50 on KRAS-G12C/SOS1 is no more than 100 nM; with p-ERK of PC-9 cells (Homo sapiens, PC-9, 1 h), greater than 1000 nM.

Take `C[C@@H](Nc1ccnc2cnc(C3(O)CCC(O)CC3)cc12)c1cccc(C(F)(F)F)c1F` (single isomer, unassigned) [Compound B-85-P1]: the IC50 on KRAS-G12C/SOS1 is no more than 100 nM; with p-ERK of PC-9 cells (Homo sapiens, PC-9, 1 h), 300 to 1000 nM.

As for `C[C@@H](Nc1ccnc2cnc(C3(O)CCN(C(=O)C4CCOCC4)CC3)cc12)c1cccc(C(F)F)c1F` [Compound B-135], the IC50 was no more than 100 nM at KRAS-G12C/SOS1 and 300 to 1000 nM with p-ERK of PC-9 cells (Homo sapiens, PC-9, 1 h).

Consider `C[C@@H](Nc1ccnc2cnc(C3(O)CCN(C(=O)C[C@@H]4CCOC4)CC3)cc12)c1cccc(C(F)F)c1F` [Compound B-140], for which the IC50 on KRAS-G12C/SOS1 was no more than 100 nM; in the test with p-ERK of PC-9 cells (Homo sapiens, PC-9, 1 h) it was no more than 300 nM.

For the compound `C[C@@H](Nc1ccnc2cnc(C3(O)CCOCC3)cc12)c1cccc(C(F)F)c1F` [Compound B-103], the IC50 on KRAS-G12C/SOS1 is no more than 100 nM; in the test on p-ERK of PC-9 cells (Homo sapiens, PC-9, 1 h), 300 to 1000 nM.

`C[C@@H](Nc1ccnc2cnc(N3CCOCC3)cc12)c1cccc(C(F)F)c1F` [Compound B-21]: the IC50 at KRAS-G12C/SOS1 is no more than 100 nM; in the test with p-ERK of PC-9 cells (Homo sapiens, PC-9, 1 h) it was 300 to 1000 nM.

Take `C[C@@H](Nc1ccnc2cnc(C3(O)CCN(C(=O)N(C)CCO)CC3)cc12)c1cccc(C(F)F)c1F` [Compound B-164]: the IC50 on KRAS-G12C/SOS1 was no more than 100 nM; in the test with p-ERK of PC-9 cells (Homo sapiens, PC-9, 1 h), no more than 300 nM.

On to `CC(=O)N1CC=C(c2cc3c(N[C@H](C)c4cccc(C(F)F)c4F)ccnc3cn2)C1` [Compound B-109], for which the IC50 is no more than 100 nM at KRAS-G12C/SOS1 and no more than 300 nM with p-ERK of PC-9 cells (Homo sapiens, PC-9, 1 h).

As for `C[C@@H](Nc1ccnc2cnc(C3(O)CCC(C(C)(C)O)CC3)cc12)c1cccc(C(F)(F)F)c1F` (single isomer, unassigned) [Compound B-115-P2], the IC50 at KRAS-G12C/SOS1 was no more than 100 nM; with p-ERK of PC-9 cells, no more than 300 nM.

On to `CC(=O)N1C2CCC1CN(c1cc3c(N[C@H](C)c4cccc(C#N)c4F)ccnc3cn1)C2` [Compound B-165], for which the IC50 is no more than 100 nM at KRAS-G12C/SOS1 and 300 to 1000 nM in the test on p-ERK of PC-9 cells (Homo sapiens, PC-9, 1 h).
